Biological target: T1, Kinesin-like protein KIF11 (Homo sapiens, UniProt P52732)
T1 sequence (P52732 whole entry): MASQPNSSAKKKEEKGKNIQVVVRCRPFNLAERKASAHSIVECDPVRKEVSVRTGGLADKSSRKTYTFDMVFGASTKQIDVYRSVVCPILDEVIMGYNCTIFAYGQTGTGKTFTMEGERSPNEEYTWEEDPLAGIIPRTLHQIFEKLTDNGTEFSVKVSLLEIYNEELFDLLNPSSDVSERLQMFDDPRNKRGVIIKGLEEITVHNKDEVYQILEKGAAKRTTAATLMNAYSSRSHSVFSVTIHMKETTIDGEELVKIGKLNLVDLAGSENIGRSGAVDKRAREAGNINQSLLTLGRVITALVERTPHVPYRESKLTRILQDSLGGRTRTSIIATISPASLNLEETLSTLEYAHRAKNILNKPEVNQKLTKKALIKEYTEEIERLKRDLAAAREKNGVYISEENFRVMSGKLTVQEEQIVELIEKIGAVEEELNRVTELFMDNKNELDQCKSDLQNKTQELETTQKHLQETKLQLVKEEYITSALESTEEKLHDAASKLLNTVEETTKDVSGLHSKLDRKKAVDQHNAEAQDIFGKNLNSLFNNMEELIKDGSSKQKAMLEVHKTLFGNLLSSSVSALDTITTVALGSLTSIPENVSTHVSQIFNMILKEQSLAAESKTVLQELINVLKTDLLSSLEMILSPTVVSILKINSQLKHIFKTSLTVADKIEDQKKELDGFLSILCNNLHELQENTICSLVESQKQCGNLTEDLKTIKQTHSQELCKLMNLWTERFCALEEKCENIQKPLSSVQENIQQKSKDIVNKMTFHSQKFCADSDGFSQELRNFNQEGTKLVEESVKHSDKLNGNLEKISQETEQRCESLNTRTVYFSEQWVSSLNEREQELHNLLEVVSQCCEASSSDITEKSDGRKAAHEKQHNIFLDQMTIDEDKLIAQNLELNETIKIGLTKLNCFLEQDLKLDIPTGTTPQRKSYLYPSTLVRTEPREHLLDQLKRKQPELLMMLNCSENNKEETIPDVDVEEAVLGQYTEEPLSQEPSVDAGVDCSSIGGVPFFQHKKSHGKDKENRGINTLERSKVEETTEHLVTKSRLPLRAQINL
Assay: Malachite Green Assay
Conditions: pH 6.8; 25 °C
Experimental: The ATPase activity of the Eg5 motor domain was measured by using the malachite green assay.

Structure (SMILES): CCOC(=O)C1C(C)=NC(=S)N[C@H]1c1cccc(O)c1 (stereo not given in full) [Monastrol]
- IC50: 20.7 µM

Structure (SMILES): Oc1cccc(C2NC(=S)Nc3ccccc32)c1 (stereo not given) [VS-12]
- IC50: 7.6 µM

Structure (SMILES): Oc1cccc(C2NC(=S)Nc3ccc(Br)cc32)c1 (stereo not given) [VS-17]
- IC50: 5.75 µM

Structure (SMILES): Oc1cccc(C2NC(=S)Nc3ccc(Cl)cc32)c1 (stereo not given) [VS-42]
- IC50: 5.77 µM

Structure (SMILES): Oc1cccc(C2NC(=S)Nc3cc(F)ccc32)c1 (stereo not given) [VS-54]
- IC50: 1.81 µM

Structure (SMILES): Oc1cccc(C2NC(=S)Nc3ccc(F)cc32)c1 (stereo not given) [VS-77]
- IC50: 8.04 µM

Structure (SMILES): Oc1cccc(C2NC(=S)Nc3cccc(F)c32)c1 (stereo not given) [VS-83]
- IC50: 1.17 µM

Structure (SMILES): Oc1cccc(C2NC(=S)Nc3cc(F)c(F)cc32)c1 (stereo not given) [VS-87]
- IC50: 2.74 µM

Structure (SMILES): Cc1ccc2c(c1)NC(=S)NC2c1cccc(O)c1 (stereo not given) [VS-91]
- IC50: 7.59 µM

Structure (SMILES): Cc1ccc2c(c1)C(c1cccc(O)c1)NC(=S)N2 (stereo not given) [VS-94]
- IC50: 2.73 µM

From BindingDB's records for doi:10.1002/cbic.200500168 (University of Leipzig, 2005)
